Experimental data from ChEMBL document CHEMBL1177769, “Reducing ion channel activity in a series of 4-heterocyclic arylamide FMS inhibitors” (Bioorg Med Chem Lett, 2010).

Experiments:
Assay type in all cases: ADME, organism-based
Conditions in all cases: in vivo
[1] = Volume of distribution in rat at 0.5 mg/kg, iv and 5 mg/kg, po
[2] = Cmax in rat at 0.5 mg/kg, iv and 5 mg/kg, po
[3] = Bioavailability in rat at 0.5 mg/kg, iv and 5 mg/kg, po
Rattus norvegicus = assay: Liver blood flow in rat at 0.5 mg/kg, iv and 5 mg/kg, po

Vd [1]: 0.564 L/kg
Cmax [2]: 0.839 µg/mL
bioavailability [3]: 15%
LBF (Rattus norvegicus): 3.3 L/h/kg
SMILES: CN1CC(c2ccc(NC(=O)c3nc(C#N)c[nH]3)c(C3=CCCCC3)c2)CN(C)S1(=O)=O
